In patent publication EP2646421B1, “7-NITRO-5-PHENYL-1-(PYRROLIDIN-1-YLMETHYL)-1H-BENZO[E][1,4]DIAZEPIN-2(3H)-ONE AND OTHER BENZODIAZEPINE DERIVATIVES” (Pignataro, Giuseppe, priority 2010, dated 2012):
Entries after “also recorded” stand apart in the source; their conditions may differ.

Experiments:
NCX3 = target: T1, NCX3 (Rattus norvegicus, UniProt P70549); assay: Fura-2 AM single-cell microfluorimetry, BHK-NCX3 cells; type: cell-based; details: 10 nM (Fig. 2)
T1 construct: expressed in transfected cells
T1 sequence (P70549 31-927): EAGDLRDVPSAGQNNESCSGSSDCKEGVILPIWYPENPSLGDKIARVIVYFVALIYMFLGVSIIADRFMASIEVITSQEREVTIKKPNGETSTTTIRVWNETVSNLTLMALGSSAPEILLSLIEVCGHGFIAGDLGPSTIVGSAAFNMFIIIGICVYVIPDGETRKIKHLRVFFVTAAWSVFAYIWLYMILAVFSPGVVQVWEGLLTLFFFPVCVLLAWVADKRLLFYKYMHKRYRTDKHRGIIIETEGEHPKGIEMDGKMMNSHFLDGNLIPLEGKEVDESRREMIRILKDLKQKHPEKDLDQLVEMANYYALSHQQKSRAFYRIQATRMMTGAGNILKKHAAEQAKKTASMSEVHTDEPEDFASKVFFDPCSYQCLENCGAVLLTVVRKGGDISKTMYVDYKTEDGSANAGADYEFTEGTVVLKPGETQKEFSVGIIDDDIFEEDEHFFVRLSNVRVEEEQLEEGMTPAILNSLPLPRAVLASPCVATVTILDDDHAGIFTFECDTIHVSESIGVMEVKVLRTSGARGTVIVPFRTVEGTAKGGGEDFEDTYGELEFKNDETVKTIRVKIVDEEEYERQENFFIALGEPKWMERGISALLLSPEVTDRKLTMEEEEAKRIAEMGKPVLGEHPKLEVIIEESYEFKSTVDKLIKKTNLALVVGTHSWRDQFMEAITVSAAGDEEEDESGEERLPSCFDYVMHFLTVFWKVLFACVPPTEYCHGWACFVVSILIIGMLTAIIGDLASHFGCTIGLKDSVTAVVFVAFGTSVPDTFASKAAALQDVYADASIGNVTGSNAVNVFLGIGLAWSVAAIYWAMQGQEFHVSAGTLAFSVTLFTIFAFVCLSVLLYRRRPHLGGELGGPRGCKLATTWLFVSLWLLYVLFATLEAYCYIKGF
Protocol: The activity of NCX was established by means of three different subclones of baby hamsted kidney (BHK) cells that were stably transfected with one of each NCX isoforms, named BHK-NCX1, BHK-NCX2 and BHK-NCX3. These cell lines were grown on plastic dishes in a mix of DMEM and Ham's F12 media (1:1) (Gibco, Invitrogen, MI, Italy) supplemented with 5% fetal bovine serum, 100 U/ml penicillin, and 100 µg/ml streptomycin (Sigma, St. Louis, Missouri, USA). Cells were cultured in a humidified 5% CO2 atmosphere and at the temperature of 37°C.
NCX activity has been measured considering the variation of intracellular concentrations of Ca^2+ ions ([Ca^2+]i) due to its activation by means of single-cell microfluorimetry. […] In both cases, this probe will produce an emission at 510 nm; the ratio between the two emission relative to 340 and 380 excitation allow to quantify [Ca^2+]i in the time considering the calibration curve previously performed. […]
Briefly, BHK cells wild type and/or BHK trasnsfected with NCX mutants, grown on glass coverslips, were loaded with Fura-2 acetoxymethyl ester (Fura-2AM) (10 µM) for 30 minutes at 37°C in normal Krebs solution containing the following (in mM): 5.5 KCI, 160 NaCl, 1.2 MgCl2, 1.5 CaCl2, 10 glucose, and 10 Hepes-NaOH, pH 7.4. […] Fura-2 fluorescence intensity was measured every 3 seconds. […]

BHK cells = assay: Cell viability by fluorescein diacetate / propidium iodide staining; type: cell-based, hamster; details: 10 µM, 24 hours
Excerpt: Fluorescein diacetate (FDA) is an apolar ester that could cross plasmamembrane. […] The polar compound propidium-iodide (PI) can not cross an intact plasmamembrane, so this is a good marker of necrotic cells. Once PI enters into the cell, this compound interact with nuclear DNA and give a fluorescent red light. Consequently, in the same cellular population, it is possible to discriminate live cells from dead cells, because the last group are PI-positive. In PI/PDA experiments, BHK cells were firstly treated with 10 µM neurounina-1 for 24 hours and then incubated for 3 minutes, at 22°C, in a PBS solution containing fluorescein diacetate (FDA; Sigma) and propidium iodide (PI, Calbiochem, San Diego, CA, U.S.A.), at the concentrations of di 36 µM e 7 µM, respectively. At the end of the incubation, cells were washed with PBS and observed at the microscope.

For `O=C1CN=C(c2ccccc2)c2cc([N+](=O)[O-])ccc2N1CN1CCCC1` [neurounina-1, 7-nitro-5-phenyl-1-(pyrrolidin-1-ylmethyl)-1H-benzo[e][1,4]diazepin-2(3H)-one], which “activity of Na+/Ca2+ exchange in BHK cells expressing NCX3” value (NCX3) is on record?
Its value is “did not show any significant difference”.

What about the cell viability (BHK cells) of the same compound?
The cell viability was “did not show any toxic effect; also recorded: did not affect”.
